In US10960018B2, “Methods and compounds for stimulating read-through of premature termination codons” (The UAB Research Foundation, priority 2016, dated 2021):
Marks after values point to notes of the source that are not given here.

Columns and labels:
Assay type in all cases: cell-based, Rat
FRT G542X cells = experiment: Transepithelial chloride conductance (TECC) assay in FRT G542X cells; conditions: 48 hours; for forskolin-stimulated CFTR conductance vs vehicle control: 1 μM to 30 μM, P<0.05; for FRT G542X TECC Gt Mean ± SE: forskolin-stimulated
Method: Stably transfected FRT cells as described herein cells were seeded onto Costar 24-well […] permeable supports at a density of ˜2×10^6 cells/filter and maintained at 37° C. with 5% CO2. Transepithelial resistance was assessed using an epithelial voltmeter to ensure the formation of tight monolayers, as defined by resistance >6 kcm^2. During initial evaluation of agents, cells were treated with compounds (10 μM), vehicle control (0.3% DMSO), or positive control (250 μg/mL G418) for 48 hours before transepithelial conductance (Gt) was assessed; subsequent studies used other concentrations of compounds. Measurements were taken at baseline, after the addition of 20 μM forskolin (FSK, a cAMP agonist that stimulates CFTR activity) and 10 μM CFTRInh-172 (a CFTR-specific inhibitor).
In the TECC assay, FRT G542X cells were treated with a single dose (10 μM) of each compound. FRT G542X cells were incubated for 48 hours with the compounds prior or vehicle control (0.3% DMSO). During the assay the baseline conductance (Gt) was initially determined prior to the acute addition of forskolin (20 μM) and VX-770 (10 μM) to stimulate CFTR activity; the CFTR inhibitor, CFTRInh-172 (10 μM), was added to inhibit CFTR activity at the end of the assay. In these experiments, an increase in CFTR conductance indicates the compounds stimulated read-through of the PTC in the constructs tested and that the CFTR was functional.
To prioritize which of the 48 read-through-positive compounds identified would be most efficacious in augmenting PTC read-through and restoring protein function, the TECC assay was repeated (in triplicate) using FRT G542X cells and FRT cells without CFTR (parental cells). Compounds (10 μM) or vehicle control (0.3% DMSO) were incubated for 48 hours with the cells. During the assay the baseline conductance (Gt) was initially determined prior to the acute addition of forskolin (20 μM) and VX-770 (10 μM) to stimulate CFTR activity; the CFTR inhibitor, CFTRInh-172 (10 μM), was added to inhibit CFTR activity at the end of the assay. G418 (250 μg/ml) was used as a positive control. In this assay, an increase in CFTR conductance indicates the compound stimulated read-through of the PTC in the constructs tested and that the CFTR was functional. The 48 compounds tested are provided in the Table 1 below (with the numerical designations corresponding to those shown in FIG. 4).
A series of functional assays was performed to evaluate the efficacy of these lead compounds in greater detail. Using FRT G542X cells, the optimal dose of each compound in augmenting chloride conductance (FIG. 5A) was determined. FRT G542X cells were incubated with compound (1 μM to 30 μM), G418 (250 μg/mL) or vehicle control (0.3% DMSO) for 48 hours. The conductance assay was conducted as described in Example 2 above. In this assay, an increase in CFTR conductance indicates the compounds stimulated read-through of the PTC in the constructs tested and that the CFTR was functional.

FRT QXN UGAC cells = experiment: Confirmatory dual luciferase assay (firefly/Renilla ratio); conditions: for FRT UGAC Dual Luciferase Firefly/Renilla Mean ± SD: 10 μM unless otherwise indicated
Method: The basic features of the dual luciferase reporter system have been described previously (Grentzmann G, et al., RNA; 4: 479-486, 1998). […] These constructs were grown in the presence of lead compounds, vehicle control (0.3% DMSO), or positive control (250 μg/mL G418) for 24 hrs and the assay was performed as previously described (Xue X, et al., American journal of respiratory cell and molecular biology; 50: 805-816; 2014).
In this assay, an increase in the luciferase ratio indicates the compounds stimulated read-through of the PTC in the constructs tested. FRT QXN UGAC cells were incubated with compound (0.01 μM to 10 μM), G418 (250 μg/mL) or vehicle control (0.3% DMSO) for 48 hours.

FRT G542X^HRP cells = experiment: Horse radish peroxidase (HRP) CFTR cell surface expression assay, G542X; conditions: 48 hours; for FRT G542X HRP RLU Mean ± SE / HRP activity (CFTR cell surface expression) compared to vehicle control: 10 μM
Method: To measure cell surface expression of CFTR, FRT cells expressing the fusion protein of G542X CFTR and HRP were treated with 10 μM of lead compounds for 48 hours at 37° C. and 5% CO2. Holding DMSO concentration at 0.3%, FRT cells were washed 4 times in PBS supplemented with 1 mM MgCl2 and 0.1 mM CaCl2 and then incubated with the HRP substrate (Fisher, #PI-34096, 15 μl/well) at room temperature for 10 minutes. The luminescent HRP signal was analyzed via a Synergy NEO microplate reader (BioTek Instruments).
To obtain an additional readout of CFTR function, the effect of the lead compounds on CFTR cell surface expression was evaluated using the HRP assay. FTR G542X cells were incubated with compound (10 μM), G418 (250 μg/mL) or vehicle control (0.3% DMSO) for 48 hours prior to determination of HRP activity. In this assay, an increase in HRP activity indicates the compounds stimulated read-through of the PTC in the constructs tested.

C[C@@H]1C[C@@H]([C@H](O)CC2CC(=O)NC(=O)C2)C(=O)[C@@H](C)C1 [Cyclohexamide, CYCLOHEXIMIDE]
forskolin-stimulated CFTR conductance vs vehicle control (FRT G542X cells): significantly higher | FRT G542X TECC Gt Mean ± SE (FRT G542X cells; 3 μM (footnote b)): 0.13 ± 0.06**^,b mS/cm^2 | FRT UGAC Dual Luciferase Firefly/Renilla Mean ± SD (FRT QXN UGAC cells): 1.81 ± 0.01 | FRT G542X HRP RLU Mean ± SE (FRT G542X^HRP cells): 38171 ± 1618 RLU | HRP activity (CFTR cell surface expression) compared to vehicle control (FRT G542X^HRP cells): significantly higher

COc1cccc2c1C(=O)c1c(O)c3c(c(O)c1C2=O)C[C@@](O)(C(=O)CO)C[C@@H]3O[C@H]1C[C@H](N)[C@H](O)[C@H](C)O1 [Doxorubicin, DOXORUBICIN]
FRT G542X TECC Gt Mean ± SE (FRT G542X cells; 10 μM): 0.11 ± 0.01 mS/cm^2 | concentration at which dual luciferase activity peaked (FRT QXN UGAC cells; 0.01 μM to 10 μM, 48 hours): ~1 µM | FRT UGAC Dual Luciferase Firefly/Renilla Mean ± SD (FRT QXN UGAC cells): 1.99 ± 0.007 | FRT G542X HRP RLU Mean ± SE (FRT G542X^HRP cells): 26269 ± 1426 RLU | HRP activity (CFTR cell surface expression) compared to vehicle control (FRT G542X^HRP cells): significantly higher

CCCOc1ccc2nc(NC(=O)OC)[nH]c2c1 [Oxibendazole, OXIBENDAZOLE]
forskolin-stimulated CFTR conductance vs vehicle control (FRT G542X cells): significantly higher | FRT G542X TECC Gt Mean ± SE (FRT G542X cells; 30 μM (footnote c)): 0.16 ± 0.005****^,c mS/cm^2 | FRT UGAC Dual Luciferase Firefly/Renilla Mean ± SD (FRT QXN UGAC cells): 1.34 ± 0.01 | FRT G542X HRP RLU Mean ± SE (FRT G542X^HRP cells): 28150 ± 908.6 RLU | HRP activity (CFTR cell surface expression) compared to vehicle control (FRT G542X^HRP cells): significantly higher

Cc1ccc(NC(=O)C2(c3ccc4c(c3)OC(F)(F)O4)CC2)nc1-c1cccc(C(=O)O)c1 [VX-809]
CFTR stimulation (conductance) in the presence of forskolin and GP-5 (FRT G542X cells; escin 10 μM, VX-809 3 μM, GP-5 10 μM, C1+C2 10 μM): non-significant effects | CFTR protein expression at the cell surface (FRT G542X^HRP cells; escin 10 μM, VX-809 3 μM): significant stimulatory effects
